Experimental data taken from the NIST ThermoML archive (doi:10.1021/acs.jced.6b00112).
± gives the expanded uncertainty stated by the source.

Assays:
[1] = 298.15 K; 101.33 kPa; Liquid; Vibrating tube method
[2] = refractive index (Na D-line) (dimensionless); conditions: 298.15 K; 101.33 kPa; Liquid; Standard Abbe refractometry

Structure (SMILES)	mass density [1]	refractive index [2]
CC(=O)O [acetic acid]	1044.12 ± 10 kg/m3	1.3714 ± 0.0008
CCCC(=O)O [butanoic acid]	952.68 ± 10 kg/m3	1.3977 ± 0.0008
CCc1ccccc1 [ethylbenzene]	862.51 ± 10 kg/m3	1.493 ± 0.0008
O=CO [formic acid]	1219.5 ± 10 kg/m3	1.371 ± 0.0008
CCC(=O)O [propanoic acid]	998.04 ± 10 kg/m3	1.3807 ± 0.0008
O [water]	–	1.3324 ± 0.0008
